In patent publication EP4061322B1 (Institut des Sciences et Industries du Vivant et de …, priority 2019, dated 2021):
Like-named read-outs stand apart in the source and are kept apart here. Blank lines part the entries; values can stand above or below the compound they belong to.

Experiments:
[1] = Photostability under UV exposure; type: physicochemical; conditions: for A (t=0 min): absorbance before UV exposure
From the text: La stabilité des composés 1 à 7 aux UV a été étudiée par soumission à une exposition (λ : 300 nm, P : 8.32 W/m^2) pendant une heure.
L'Avobenzone a été utilisée comme molécule de référence. Cette molécule est connue pour être […] sous exposition UV, ce qui n'est pas du tout le cas d'autres composés bio-sourcés.
La photostabilité des composés 8 à 11 a également été étudiée, de manière identique au test appliqué aux composés 1 à 7. Les résultats obtenus sont présentés dans le Tableau 2. […] Cette méthodologie a été appliquée à l'ensemble des molécules décrites ci-dessus. Tableau 2 : Stabilité des composés 8 à 11 soumis à une exposition aux UV.

[2] = UV-Vis absorption spectrum (anti-UVA and blue light properties); type: physicochemical; design: λmax: unit not given here
From the text: Un spectre UV-Vis a été réalisé dans l'éthanol à 10^-5 mol/L pour les composés 1 à 7, qui sont des dérivés furaniques de l'acide de Medrum. L'Avobenzone, une molécule très largement utilisée comme filtre UVA dans les crèmes solaires, a été utilisée en tant que référence.
Cette méthodologie a été employée pour évaluer les propriétés anti-UV des composés 8 à 11, qui sont des dérivés phénoliques de l'acide de Medrum, des composés 12 à 15 qui sont des dérivés pyrroliques de l'acide de Meldrum, des composés 16 à 18 qui sont des dérivés vinylphénol de l'acide de Meldrum, le composé 19 qui est un dérivé vinylfurane de l'acide de Meldrum.

[3] = Antioxidant properties (IC50 compared with BHA and BHT); type: biochemical
From the text: Les propriétés anti-oxydantes des composés 8 à 11 ont été évaluées par comparaison de leur IC50 avec celles de deux molécules de référence que sont la BHA et le BHT. Ces deux molécules sont très largement utilisées dans les formulations cosmétiques bien qu'elles soient controversées pour leur effet potentiellement cancérigène.

[4] = target: T1, AR (récepteur des androgènes) (Homo sapiens, UniProt P10275); experiment: Endocrine system: receptor activity in presence of compound and reference molecule (antagonist effect); type: cell-based; conditions: Figure 8; with reference molecule; even at the highest concentrations
T1 sequence (P10275 1-920): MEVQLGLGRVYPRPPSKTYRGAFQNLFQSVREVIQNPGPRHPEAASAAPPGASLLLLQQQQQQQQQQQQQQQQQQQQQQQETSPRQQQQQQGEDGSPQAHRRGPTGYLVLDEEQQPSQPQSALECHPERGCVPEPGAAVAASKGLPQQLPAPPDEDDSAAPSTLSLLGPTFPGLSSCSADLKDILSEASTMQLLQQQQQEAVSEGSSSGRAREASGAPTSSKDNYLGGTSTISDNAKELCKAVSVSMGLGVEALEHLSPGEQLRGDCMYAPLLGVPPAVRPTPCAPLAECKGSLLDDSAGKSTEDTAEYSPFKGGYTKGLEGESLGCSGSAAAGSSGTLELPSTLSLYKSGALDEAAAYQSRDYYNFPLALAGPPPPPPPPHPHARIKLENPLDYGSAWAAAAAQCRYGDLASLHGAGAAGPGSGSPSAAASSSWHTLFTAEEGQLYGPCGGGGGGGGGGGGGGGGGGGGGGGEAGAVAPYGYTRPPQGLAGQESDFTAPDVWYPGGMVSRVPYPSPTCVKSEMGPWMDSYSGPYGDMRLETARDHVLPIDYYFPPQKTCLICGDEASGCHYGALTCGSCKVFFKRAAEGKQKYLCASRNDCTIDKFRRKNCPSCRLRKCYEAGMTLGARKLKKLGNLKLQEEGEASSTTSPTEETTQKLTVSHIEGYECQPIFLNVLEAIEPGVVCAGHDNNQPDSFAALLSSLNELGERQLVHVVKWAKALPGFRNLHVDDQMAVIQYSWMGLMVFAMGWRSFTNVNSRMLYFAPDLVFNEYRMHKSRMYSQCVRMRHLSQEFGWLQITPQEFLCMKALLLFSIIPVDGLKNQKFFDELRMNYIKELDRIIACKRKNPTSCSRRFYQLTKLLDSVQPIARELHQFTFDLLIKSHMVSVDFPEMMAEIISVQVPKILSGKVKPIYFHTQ
From the text: (§1) L'effet des composés 1 et 4 sur le système endocrinien a été évalué pour leurs propriétés agonistes et antagonistes sur différents récepteurs : ERα (récepteur œstrogène alpha), AR (récepteur des androgènes) et PXR (pregnane X receptor). Un premier test consiste à étudier l'activité des récepteurs en présence du composé 1 ou 4 (effet agoniste). […] Un second test vise à l'étude de l'activité des récepteurs en présence du composé 1 ou 4 et d'une molécule de référence pour chaque récepteur (effet antagoniste).

[5] = target: T2, PXR (pregnane X receptor) (Homo sapiens, UniProt O75469); experiment: as above; type: cell-based; conditions: Figure 9; with reference molecule; even at the highest concentrations
T2 sequence (O75469 1-434): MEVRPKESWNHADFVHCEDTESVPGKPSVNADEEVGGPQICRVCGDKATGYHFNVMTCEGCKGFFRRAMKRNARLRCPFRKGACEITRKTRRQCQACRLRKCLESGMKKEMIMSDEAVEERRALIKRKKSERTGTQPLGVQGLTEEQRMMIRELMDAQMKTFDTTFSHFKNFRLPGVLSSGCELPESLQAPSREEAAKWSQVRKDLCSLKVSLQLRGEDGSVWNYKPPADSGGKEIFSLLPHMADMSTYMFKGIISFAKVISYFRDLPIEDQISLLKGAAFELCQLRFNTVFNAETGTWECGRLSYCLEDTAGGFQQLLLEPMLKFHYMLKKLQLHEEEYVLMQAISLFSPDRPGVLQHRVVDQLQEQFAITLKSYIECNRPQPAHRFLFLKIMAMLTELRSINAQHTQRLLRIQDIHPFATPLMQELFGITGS
From the text: as §1

[6] = target: T3, ERα (récepteur œstrogène alpha) (Homo sapiens, UniProt P03372); experiment: as above; type: cell-based; conditions: Figure 7; with reference molecule; even at the highest concentrations
T3 sequence (P03372 1-595): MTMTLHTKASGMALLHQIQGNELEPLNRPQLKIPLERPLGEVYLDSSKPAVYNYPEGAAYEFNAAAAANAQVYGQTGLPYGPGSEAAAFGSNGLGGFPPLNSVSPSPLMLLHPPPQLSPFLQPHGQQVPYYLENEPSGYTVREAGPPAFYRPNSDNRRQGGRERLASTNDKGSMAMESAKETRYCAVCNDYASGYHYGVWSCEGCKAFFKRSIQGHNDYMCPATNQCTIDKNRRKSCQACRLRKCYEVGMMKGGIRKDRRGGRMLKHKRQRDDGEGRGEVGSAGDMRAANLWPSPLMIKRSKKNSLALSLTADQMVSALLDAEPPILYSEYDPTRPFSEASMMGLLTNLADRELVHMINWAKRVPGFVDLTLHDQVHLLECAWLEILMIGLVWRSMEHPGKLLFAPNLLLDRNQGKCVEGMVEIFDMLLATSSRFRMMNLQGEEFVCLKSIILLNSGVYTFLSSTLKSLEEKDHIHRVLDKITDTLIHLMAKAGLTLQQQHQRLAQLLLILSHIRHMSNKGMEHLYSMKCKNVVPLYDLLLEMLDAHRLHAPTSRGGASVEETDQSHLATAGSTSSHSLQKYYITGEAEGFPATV
From the text: as §1

[7] = target: T1, AR (récepteur des androgènes); experiment: Endocrine system: receptor activity in presence of compound (agonist effect); type: cell-based; conditions: Figure 6, C = 10 µM; even at the highest concentrations
From the text: as §1

[8] = target: T2, PXR (pregnane X receptor); experiment: as above; type: cell-based; conditions: Figure 6, C = 10 µM; even at the highest concentrations
From the text: as §1

[9] = target: T3, ERα (récepteur œstrogène alpha); experiment: as above; type: cell-based; conditions: Figure 6, C = 10 µM; even at the highest concentrations
From the text: as §1

[10] = Tableau 2, same test as for compounds 1 to 7 (λ 300 nm, P 8.32 W/m^2, one hour)
[11] = Tableau 1, UV exposure λ 300 nm, P 8.32 W/m^2, one hour
[12] = read-out: IC50 (nmol); antioxidant properties

Compound: COc1cc(C=C2C(=O)OC(C)(C)OC2=O)cc(OC)c1O
- A (t=0 min) ([1]; Tableau 2): 0,24614
- Perte d'activité (%) [1, 10]: 11,43%
- λmax ([2]; Tableau 2): 405
- IC50 ([3]; antioxidant properties; read-out: IC50 (nmol)): 3.58 nM
- capacité antioxydante ([3]; result in words): remarquables

Compound: COc1ccc(C(=O)CC(=O)c2ccc(C(C)(C)C)cc2)cc1 [Avobenzone, reference compound]
- Perte d'activité (%) [1, 11]: 0,6%
- A (t=0 min) ([1]; Tableau 1): 0,36735
- λmax ([2]; Tableau 1): 350

Compound: COc1ccc(O)c(C(C)(C)C)c1 [BHA, reference compound]
- IC50 [3, 12]: 6.51 nmol

Compound: Cc1cc(C(C)(C)C)c(O)c(C(C)(C)C)c1 [BHT, reference compound]
- IC50 [3, 12]: 13.1 nmol

Compound: CC1(C)OC(=O)C(=Cc2ccc(O)cc2)C(=O)O1 [Composé 10, 5-(4-Hydroxybenzylidene)-2,2-dimethyl-1,3-dioxane-4,6-dione]
- A (t=0 min) ([1]; Tableau 2): 0,29431
- Perte d'activité (%) [1, 10]: 3,47%
- λmax ([2]; Tableau 2): 374
- IC50 (nmol) ([3]; antioxidant properties): Pas d'effet

Compound: CC(=O)OCc1ccc(C=C2C(=O)OC(C)(C)OC2=O)o1 [compound 6, 5-[[5-((Acetyloxy)methyl)-2-furanyl]methylene]-2,2-dimethyl-1,3-dioxane-4,6-dione]
- Perte d'activité (%) [1, 11]: 12,0%
- A (t=0 min) ([1]; Tableau 1): 0,28728
- λmax ([2]; Tableau 1): 366

Compound: CC1(C)OC(=O)C(=Cc2ccc(C=C3C(=O)OC(C)(C)OC3=O)o2)C(=O)O1 [compound 7, 5,5'-(2,5-furandiyldimethylidyne)bis-2,2-dimethyl-1,3-dioxane-4,6-dione]
- Perte d'activité (%) [1, 11]: 12,4%
- A (t=0 min) ([1]; Tableau 1): 0,47642
- λmax ([2]; Tableau 1): 406 - 426

Compound: CC1(C)OC(=O)C(=CC=Cc2ccco2)C(=O)O1 [compound 19, 5-[3-(2-furanyl)-2-propen-1-ylidene]-2,2-dimethyl-1,3-Dioxane-4,6-dione]
- absorption UVA et lumière bleue (spectre UV-Vis) ([2]; in ethanol at 10^-5 mol/L, Figure 2): comparables à ceux obtenus avec les composés 1 à 7

Second part, led by results:

- Perte d'activité (%) [1, 11]: < 5%
- Perte d'activité (%) ([1]; Tableau 1, UV exposure λ 300 nm, P 8.32 W/m^2, one hour, listed as Composé (1)): 3.5%
- A (t=0 min) ([1]; Tableau 1): 0.3381
- λmax ([2]; Tableau 1): 361
Compound: CC1(C)OC(=O)C(=Cc2ccco2)C(=O)O1 [Composé 1, 5-(2-Furanylmethylene)-2,2-dimethyl-1,3-dioxane-4,6-dione]
- effet antagoniste sur le récepteur AR [4]: n'empêchent pas l'activité des récepteurs envers les molécules de référence
- effet antagoniste sur le récepteur PXR [5]: n'empêchent pas l'activité des récepteurs envers les molécules de référence
- effet antagoniste sur le récepteur ERα [6]: n'empêchent pas l'activité des récepteurs envers les molécules de référence
- effet agoniste (activité du récepteur AR) [7]: n'induisent pas une activité anormale des récepteurs
- effet agoniste (activité du récepteur PXR) [8]: n'induisent pas une activité anormale des récepteurs
- effet agoniste (activité du récepteur ERα) [9]: n'induisent pas une activité anormale des récepteurs

- A (t=0 min) ([1]; Tableau 2): 0,26515
- Perte d'activité (%) [1, 10]: 6,37%
- λmax ([2]; Tableau 2): 398
- IC50 [3, 12]: 2.9 nmol
Compound: CC1(C)OC(=O)C(=Cc2ccc(O)c(O)c2)C(=O)O1 [Composé 9]
- capacité antioxydante ([3]; result in words): remarquables

- Perte d'activité (%) [1, 11]: < 5%
- Perte d'activité (%) ([1]; Tableau 1, UV exposure λ 300 nm, P 8.32 W/m^2, one hour, listed as Composé (2)): 4,2%
- A (t=0 min) ([1]; Tableau 1): 0,37961
- λmax ([2]; Tableau 1): 400
Compound: Cc1cc(C=C2C(=O)OC(C)(C)OC2=O)oc1C [compound 2, 5-[(4,5-Dimethyl-2-furanyl)methylene]-2,2-dimethyl-1,3-dioxane-4,6-dione]

- Perte d'activité (%) [1, 11]: < 5%
- Perte d'activité (%) ([1]; Tableau 1, UV exposure λ 300 nm, P 8.32 W/m^2, one hour, listed as Composé (3)): 5,1%
- A (t=0 min) ([1]; Tableau 1): 0,31307
- λmax ([2]; Tableau 1): 374
Compound: CCc1ccc(C=C2C(=O)OC(C)(C)OC2=O)o1 [compound 3, 5-[(5-Ethyl-2-furanyl)methylene]-2,2-dimethyl-1,3-dioxane-4,6-dione]

- Perte d'activité (%) [1, 11]: 28,7%
- A (t=0 min) ([1]; Tableau 1): 0,32310
- λmax ([2]; Tableau 1): 386
Compound: CC1(C)OC(=O)C(=Cc2cc3ccccc3o2)C(=O)O1 [compound 5, 5-(2-benzofuranylmethylene)-2,2-dimethyl-1,3-dioxane-4,6-dione]
